The record followed here is patent US7776572B2, “Method for reducing loss of enzyme activity during storage” (Corning Incorporated, priority 1996, dated 2010).

For one experiment, the system named is IgG protein. Briefly: In-mold coating of 24-well polystyrene plates, protein binding by colloidal gold staining. Conditions: 1% isopropanol solution. The protocol:
The in-mold coating aspects of the invention were tested by molding 24-well polystyrene plates. […] The 0.01% concentration was estimated to produce less than one monolayer of surfactant on the finished product, while the 0.1% concentration produced about 7 monolayers. The surfactant was applied to the mold using a Crown sprayer (Crown Industrial Products, Hebron, Ill.; Catalog #8011), which produces a sufficiently fine spray of droplets to uniformly coat the mold. The mold was sprayed before each part was made.

The next experiment deals with MDCK cells. Briefly: MDCK cell attachment to coated polystyrene 24-well plates. Type of experiment: cell-based. Conditions: coated PS 24-well, gamma sterilized, media with 5% FBS, two days, visual. The protocol: The procedures used were as follows. Polystyrene 24-well plates were coated with the non-ionic surfactants listed in Table 5 in accordance with the procedures described in Materials and Methods. Uncoated plates were used as a control. For comparison, plates with a covalently attached acrylamide coating (Corning Costar Catalog #2500) and with a stearic acid coating were also tested. The stearic acid coating was applied in the same manner as the non-ionic surfactants again using a 0.1% (w/v) solution.
The plates were gamma sterilized at 1.5 Mrad and then inoculated with 5.6×10^4 MDCK […] per well in 1 ml of complete media containing 5% FBS (Fetal Bovine Serum). Incubation was carried out at 37° C. in a 5% CO2 atmosphere for two days. The plates were fixed and stained, and cell attachment was noted. Following this, the wells were stained using the colloidal gold technique to detect bound protein. Only visual observations were made.
Experiments were also performed with cells suspended in serum. The cells used in these experiments were MDCK cells. The surfactants used were the same as used in Table 5. Again, reduced binding of the cells to surfaces treated with a non-ionic surfactant was observed.

A further experiment concerns IgG (horse). The experiment is described as follows: IgG binding to 24-well plates, surfactant dried or not dried before H2O rinse, colloidal Au. Conditions: 0.5% surfactant in H2O/isopropanol (90/10). The protocol:
Duplicate 24-well plates were prepared as follows. Individual wells were filled with 3 ml of non-ionic surfactants at 0.5% (weight/volume) in H2O/isopropanol (90/10 weight/volume).
The duplicate plates were incubated for 30 minutes at room temperature on a rocker table and then emptied. One plate was tapped out and then allowed to dry at room temperature in a hood. It was then rinsed 5× with dI H2O. The second plate was not allowed to dry, but instead was immediately rinsed 5× with H2O. The plates were then tested for protein binding by filling each well with 0.5 ml of IgG (horse) at 10 μg/ml in PBS buffer and incubating for 30 minutes on a rocker table at room temperature. The plates were then rinsed with dI H2O and stained overnight with colloidal Au.

Another experiment has as its system IgG. The experiment is described as follows: Coating durability using water washes, IgG binding by colloidal gold. Put shortly:
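24-well polystyrene plates coated with surfactants; durability tested by water washes on a rocker. IgG incubated 30 minutes at 23° C. with rocking, then rinsed 3× with water.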

A further experiment has as its system BSA. Briefly: Polymer blends molded into petri dishes, BSA binding by colloidal gold. Conditions: blended at 5% into polypropylene; silver enhancer.
A further experiment has as its system bound protein. Briefly: Colloidal gold staining of bound protein after MDCK culture in media containing 5% FBS, visual. To be noted: colloidal gold after cell culture, visual observation. In a few lines: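 Polystyrene wells coated with non-ionic surfactants, gamma-sterilized at 1.5 Mrad, seeded with 5.6×10^4 MDCK cells per well in medium with 5% FBS and cultured 2 days at 37 °C, 5% CO2. After fixing, bound protein detected by colloidal gold staining; visual assessment only.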

The next experiment concerns Fetal Bovine Serum (FBS). Briefly: Polymer blends molded into petri dishes, FBS protein binding by colloidal gold. To be noted: blended at 5% into polypropylene; silver enhancer.
In experiment [1] the test system is GAM-IgG-HRP (goat-anti-mouse-IgG-horseradish peroxidase enzyme labeled antibody). Briefly: Bound enzyme labeled antibody on strips exposed to aqueous surfactant, rinsed or not rinsed, ABTS readout. Conditions: 0.1% surfactant in H2O/isopropanol (95/5), not dried. The protocol:
Medium binding (catalog #2587) and high binding (catalog #2581) polystyrene 96-well plates (8-well strips) manufactured by Corning Costar were used as follows. […] Strips were incubated for 30 minutes at room temperature on a rocker table. Strips were then emptied and tapped out. […] Immediately following this procedure, each well was aliquoted 0.10 ml of GAM-IgG-HRP (goat-anti-mouse-IgG-horseradish peroxidase enzyme labeled antibody; Kirkegaard and Perry, Gaithersburg, Md., Catalog #074-1806) at 1.0 μg/ml in PBS buffer pH=7.4). Strips were incubated for one hour at room temperature on a rocker table. Strips were then rinsed 5× with PBS buffer containing 0.02% Tween-20 followed by post rinsing with H2O. […] Absorbance at 405 nm was measured on a Cambridge Technologies #7520 Plate Reader.

Method for BSA: (§1) Low binding non-ionic surfactant molecules were blended at 5% (except as noted in Table 13) into a base polymer using a twin screw extruder, then injection molded into the shape of 35 mm petri dishes. Proteins tested were BSA and Fetal Bovine Serum (FBS). Protein binding was determined using a colloidal gold staining procedure as described above. In the case of the polypropylene and EVA blends, a silver enhancer was used (Sigma Chem. Co., St, Louis, Mo., Kit #SE-100).
Method for Fetal Bovine Serum (FBS): as §1

Take `CCCCCCCCCCCCCCCCCC(=O)OCC(O)CO` (centres unmarked) [GLYCEROL MONO-STEARATE]: the “protein binding of in-mold coated part” value in the experiment on IgG protein is “low protein binding”.
For the compound PEO(20) SORBITOL MONO-LAURATE, the “MDCK Attachment” value in the experiment with MDCK cells is reported as “None”. Also, the “Absorbance (550 nm) Dried before H2O rinse” value in the experiment on IgG (horse) (dried, then rinsed 5x) is 0.14-0.16. In the experiment on IgG (horse) (not dried, rinsed 5x immediately), the “Absorbance (550 nm) H2O rinsed before drying” value is 0.13-0.16. The “Absorbance (550 nm) Initial” value in the experiment on IgG (coated polystyrene, no water wash) is 0.00. In the experiment on IgG (dI H2O wash 1 time, 1 hr, 23° C.), the “Absorbance (550 nm) 1 Time 1 hr 23° C.” value is on record as 0.02. The “Absorbance (550 nm) 1 Time 24 hr 23° C.” value with IgG (dI H2O wash 1 time, 24 hr, 23° C.) stood at 0.05. The “Absorbance (550 nm) 1 Time 24 hr 37° C.” value in the experiment on IgG (dI H2O wash 1 time, 24 hr, 37° C.) is recorded as 0.10. Further, the “Absorbance (550 nm) 1 Time 24 hr 70° C.” value in the experiment on IgG (dI H2O wash 1 time, 24 hr, 70° C.) was 0.10. In addition, the “Absorbance (550 nm) 6 Times 30 min each 23° C.” value in the experiment with IgG (dI H2O wash 6 times, 30 min each, 23° C.) came out at 0.10. Further, in the experiment with BSA, the “Bound Protein Absorbance (550 nm) BSA” value is reported as 0.153. The “Visual Color Upon Protein Staining” value with bound protein is “None”. In the experiment on Fetal Bovine Serum (FBS), the “Bound Protein Absorbance (550 nm) FBS” value was 0.270. Besides, in experiment [1] (not rinsed), the “Absorbance (405 nm) High Binding Polystyrene No Rinse” value is 0.00 and the “Absorbance (405 nm) Medium Binding Polystyrene No Rinse” value was determined as 0.00. In experiment [1] (rinsed 5x with dI H2O), the “Absorbance (405 nm) High Binding Polystyrene Rinsed” value is 2.00 and the “Absorbance (405 nm) Medium Binding Polystyrene Rinsed” value was 1.90.
